These results are taken from PMC6572114, “Synthesis, Docking and Biological Evaluation of a Novel Class of Imidazothiazoles as IDO1 Inhibitors” (Molecules, 2019).

Read-outs that look alike come from different tables or passages of the source.

For data set [1], the target named is T1, purified recombinant human IDO1 (rhIDO1) (Homo sapiens, UniProt P14902).
T1 construct: purchased Origene
Particulars: cited from earlier work.

Data set [2] concerns the target T1, purified recombinant human IDO1 (rhIDO1). Briefly: rhIDO1 enzymatic assay (conversion of L-Trp to L-KYN, p-dimethylaminobenzaldehyde readout). The conditions noted are these: for inhibition at 1 µM: rhIDO1, compound 1 µM, mean ± SE of two independent experiments; for IC50: rhIDO1, concentration-response curves, at least three experiments in triplicate. It counts as biochemical. How it is done: All the 22 synthesized compounds were then biologically evaluated (Table 1). The compounds were tested for their ability to inhibit human IDO1 in an enzyme-based assay using a purified recombinant human IDO1 (rhIDO1) enzyme (Table 1). Each compound (1 µM) was added to the reaction buffer and the rhIDO1 conversion of L-Trp to L-KYN was determined spectrophotometrically using p-dimethylaminobenzaldehyde. As reference, imidazothiazole compound 1-((3-(4-bromophenyl)-3aH-thieno [2,3-b]pyrrol-4-yl)methyl)-3-(4-cyanophenyl)urea, displaying an IC50 value of 0.08 µM, was chosen.
rhIDO1 activity was determined as follows. In brief, the standard reaction mixture (200 μL) contained 50 mM potassium phosphate buffer (KPB) (pH 6.5), 20 mM ascorbic acid (neutralized with NaOH and HCl) (Sigma Aldrich), 100 μg/mL catalase (Sigma Aldrich), 10 μM methylene blue (Alfa Aesar, Heysham, Lancashire, UK), 100 µM L-tryptophan (Sigma Aldrich), 50 nM rhIDO1 (Origene, Bologna, Italy), and dimethyl sulfoxide (DMSO) solution of the compound (4 μL). The reaction was carried out at 37 °C for 60 min and stopped by the addition of 40 μL of 30% (w/v) CCl3COOH. After heating at 50 °C for 15 min, the reaction mixture was centrifuged at 1500× g for 10 min. The supernatant (150 μL) was transferred into a well of a 96-well microplate and mixed with 150 μL of 2% (w/v) p-dimethylaminobenzaldehyde (Ehrlich’s reagent) in acetic acid. The yellow pigment derived from kynurenine was measured at 490 nm using an Ultramark Microplate Imaging System (Bio-Rad, Hercules, CA, USA). IC50 values were calculated from concentration-response curves obtained in at least three different experiments run in triplicate.

A further data set deals with IDO1. Also noted: method as in PMID 29398544. The conditions noted are these: cited from earlier work.

T1 sequence (P14902 whole entry): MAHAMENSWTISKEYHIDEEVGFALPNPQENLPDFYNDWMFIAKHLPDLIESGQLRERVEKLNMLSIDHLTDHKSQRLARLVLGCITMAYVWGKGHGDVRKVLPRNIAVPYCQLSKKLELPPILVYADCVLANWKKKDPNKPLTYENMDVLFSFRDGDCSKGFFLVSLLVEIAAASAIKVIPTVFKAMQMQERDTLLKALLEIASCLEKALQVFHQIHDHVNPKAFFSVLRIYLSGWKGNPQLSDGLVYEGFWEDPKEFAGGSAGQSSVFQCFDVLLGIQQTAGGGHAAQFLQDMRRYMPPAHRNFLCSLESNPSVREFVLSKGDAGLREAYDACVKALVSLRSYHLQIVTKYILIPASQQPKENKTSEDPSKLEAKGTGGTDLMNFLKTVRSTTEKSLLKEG

On to `N#Cc1ccc(NC(=O)NCC2=CN=C3SC=C(c4ccc(Br)cc4)C23)cc1` (stereo not shown) [1-((3-(4-bromophenyl)-3aH-thieno [2,3-b]pyrrol-4-yl)methyl)-3-(4-cyanophenyl)urea], for which, in data set [1] (rhIDO1, read-out: IC50 (rhIDO1)), the IC50 was 80 nM. In the case of `Brc1ccc(-c2csc3ncc(Cn4cc(Cc5ccccc5)nn4)n23)cc1` [11a, 5-((4-Benzyl-1H-1,2,3-triazol-1-yl)methyl)-3-(4-bromophenyl)imidazo[2,1-b]thiazole], the melting point is 106.5 to 107.5 °C. The inhibition at 1 µM in data set [2] was 30 ± 6.7%. Turning to `Brc1ccc(-c2csc3ncc(Cn4cc(-c5ccccc5)nn4)n23)cc1` [11b, 3-(4-Bromophenyl)-5-((4-phenyl-1H-1,2,3-triazol-1-yl)methyl)imidazo[2,1-b]thiazole], the melting point was 199 to 199.5 °C (dec.). Moreover, the inhibition at 1 µM in data set [2] was 35 ± 2.7%. The matching figures for `COc1ccc(-c2cn(Cc3cnc4scc(-c5ccc(Br)cc5)n34)nn2)cc1` [11c, 3-(4-Bromophenyl)-5-((4-(4-methoxyphenyl)-1H-1,2,3-triazol-1-yl)methyl)imidazo[2,1-b]thiazole]: 118 to 119 °C (dec.) and 57 ± 13%. For the compound `Nc1ccc(-c2cn(Cc3cnc4scc(-c5ccc(Br)cc5)n34)nn2)cc1` [11d, 4-(1-((3-(4-Bromophenyl)imidazo[2,1-b]thiazol-5-yl)methyl)-1H-1,2,3-triazol-4-yl)aniline], the melting point was 117 to 118 °C (dec.). Further, the inhibition at 1 µM in data set [2] amounted to 17 ± 1.2%. The matching figures for `N#Cc1ccc(-c2cn(Cc3cnc4scc(-c5ccc(Br)cc5)n34)nn2)cc1` [11e, 4-(1-((3-(4-Bromophenyl)imidazo[2,1-b]thiazol-5-yl)methyl)-1H-1,2,3-triazol-4-yl)benzonitrile]: 190 to 191 °C (dec.) and 28 ± 1.5%. As to `N#CCc1ccc(-c2cn(Cc3cnc4scc(-c5ccc(Br)cc5)n34)nn2)cc1` [11f, 2-(4-(1-((3-(4-Bromophenyl)imidazo[2,1-b]thiazol-5-yl)methyl)-1H-1,2,3-triazol-4-yl)phenyl)acetonitrile], the melting point lay in the range of 121.5 to 122.5 °C. Further, in data set [2], the inhibition at 1 µM amounted to 74 ± 5.8% and the IC50 was found to be 500 ± 40 nM.

The compound `Brc1ccc(-c2csc3ncc(Cn4cc(C5CC5)nn4)n23)cc1` [11g, 3-(4-Bromophenyl)-5-((4-cyclopropyl-1H-1,2,3-triazol-1-yl)methyl)imidazo[2,1-b]thiazole] came in with a melting point of 145.5 to 146.5 °C. The inhibition at 1 µM in data set [2] amounted to 61 ± 7.1%. The matching figures for `OC1(c2cn(Cc3cnc4scc(-c5ccc(Br)cc5)n34)nn2)CCCCC1` [11h, 1-(1-((3-(4-Bromophenyl)imidazo[2,1-b]thiazol-5-yl)methyl)-1H-1,2,3-triazol-4-yl)cyclohexanol]: 163.5 to 164.5 °C (dec.) and 35 ± 2.4%.

Turning to `OCCCc1cn(Cc2cnc3scc(-c4ccc(Br)cc4)n23)nn1` [11i, 3-(1-((3-(4-Bromophenyl)imidazo[2,1-b]thiazol-5-yl)methyl)-1H-1,2,3-triazol-4-yl)propan-1-ol], the inhibition at 1 µM in data set [2] worked out at 0%. As for `O=C(O)CCc1cn(Cc2cnc3scc(-c4ccc(Br)cc4)n23)nn1` [11j, 3-(1-((3-(4-Bromophenyl)imidazo[2,1-b]thiazol-5-yl)methyl)-1H-1,2,3-triazol-4-yl)propanoic acid], the melting point was 148 to 148.5 °C (dec.). Moreover, in data set [2], the inhibition at 1 µM turned out to be 81 ± 7.9% and the IC50 was 1100 ± 70 nM.

For `N#CCCCCc1cn(Cc2cnc3scc(-c4ccc(Br)cc4)n23)nn1` [11k, 5-(1-((3-(4-Bromophenyl)imidazo[2,1-b]thiazol-5-yl)methyl)-1H-1,2,3-triazol-4-yl)pentanenitrile], the inhibition at 1 µM in data set [2] turned out to be 62 ± 5.6%. In the case of `O=C(Cn1cc(Cc2ccccc2)nn1)NCc1cnc2scc(-c3ccc(Br)cc3)n12` [12a, 2-(4-Benzyl-1H-1,2,3-triazol-1-yl)-N-((3-(4-bromophenyl)imidazo[2,1-b]thiazol-5-yl)methyl)acetamide], the melting point lay in the range of 177 to 177.5 °C. Further, in data set [2], the inhibition at 1 µM was 63 ± 4.3%. The matching figures for `O=C(Cn1cc(-c2ccccc2)nn1)NCc1cnc2scc(-c3ccc(Br)cc3)n12` [12b, N-((3-(4-Bromophenyl)imidazo[2,1-b]thiazol-5-yl)methyl)-2-(4-phenyl-1H-1,2,3-triazol-1-yl)acetamide]: 251.5 to 252.5 °C (dec.) and 61 ± 5.5%. `COc1ccc(-c2cn(CC(=O)NCc3cnc4scc(-c5ccc(Br)cc5)n34)nn2)cc1` [12c, N-((3-(4-Bromophenyl)imidazo[2,1-b]thiazol-5-yl)methyl)-2-(4-(4-methoxyphenyl)-1H-1,2,3-triazol-1-yl)acetamide]: the melting point lay within 183 to 184 °C. Also, the inhibition at 1 µM in data set [2] amounted to 5 ± 1.2%. The matching figures for `Nc1ccc(-c2cn(CC(=O)NCc3cnc4scc(-c5ccc(Br)cc5)n34)nn2)cc1` [12d, 2-(4-(4-Aminophenyl)-1H-1,2,3-triazol-1-yl)-N-((3-(4-bromophenyl)imidazo[2,1-b]thiazol-5-yl)methyl)acetamide]: 217 to 218 °C (dec.) and 56 ± 4.7%. As to `N#Cc1ccc(-c2cn(CC(=O)NCc3cnc4scc(-c5ccc(Br)cc5)n34)nn2)cc1` [12e, N-((3-(4-Bromophenyl)imidazo[2,1-b]thiazol-5-yl)methyl)-2-(4-(4-cyanophenyl)-1H-1,2,3-triazol-1-yl)acetamide], the melting point was 267 to 267.5 °C (dec.). Further, the inhibition at 1 µM in data set [2] was found to be 50 ± 4.5%.

Compound `N#CCc1ccc(-c2cn(CC(=O)NCc3cnc4scc(-c5ccc(Br)cc5)n34)nn2)cc1` [12f, N-((3-(4-Bromophenyl)imidazo[2,1-b]thiazol-5-yl)methyl)-2-(4-(4-(cyanomethyl)phenyl)-1H-1,2,3-triazol-1-yl)acetamide] yielded a melting point of 231 to 231.5 °C. In addition, the inhibition at 1 µM in data set [2] stood at 55 ± 7.2%. Turning to `O=C(Cn1cc(C2CC2)nn1)NCc1cnc2scc(-c3ccc(Br)cc3)n12` [12g, N-((3-(4-Bromophenyl)imidazo[2,1-b]thiazol-5-yl)methyl)-2-(4-cyclopropyl-1H-1,2,3-triazol-1-yl)acetamide], the melting point was 225 to 225.5 °C (dec.). Moreover, in data set [2], the inhibition at 1 µM is 70 ± 9.2% and the IC50 came out at 200 ± 10 nM. With `O=C(Cn1cc(C2(O)CCCCC2)nn1)NCc1cnc2scc(-c3ccc(Br)cc3)n12` [12h, N-((3-(4-Bromophenyl)imidazo[2,1-b]thiazol-5-yl)methyl)-2-(4-(1-hydroxycyclohexyl)-1H-1,2,3-triazol-1-yl)acetamide], the melting point fell in the range of 165 to 166 °C. Further, the inhibition at 1 µM in data set [2] was determined as 63 ± 4.1%. Consider `O=C(Cn1cc(CCCO)nn1)NCc1cnc2scc(-c3ccc(Br)cc3)n12` [12i, N-((3-(4-Bromophenyl)imidazo[2,1-b]thiazol-5-yl)methyl)-2-(4-(3-hydroxypropyl)-1H-1,2,3-triazol-1-yl)acetamide], for which the melting point is 169 to 170 °C (dec.). Besides, the inhibition at 1 µM in data set [2] worked out at 45 ± 2.8%. The matching figures for `O=C(O)CCc1cn(CC(=O)NCc2cnc3scc(-c4ccc(Br)cc4)n23)nn1` [12j, 3-(1-(2-(((3-(4-Bromophenyl)imidazo[2,1-b]thiazol-5-yl)methyl)amino)-2-oxoethyl)-1H-1,2,3-triazol-4-yl)propanoic acid]: 153 to 154 °C (dec.) and 33 ± 4.5%.

`N#CCCCCc1cn(CC(=O)NCc2cnc3scc(-c4ccc(Br)cc4)n23)nn1` [12k, N-((3-(4-Bromophenyl)imidazo[2,1-b]thiazol-5-yl)methyl)-2-(4-(4-cyanobutyl)-1H-1,2,3-triazol-1-yl)acetamide] registered a melting point of 179.5 to 180.5 °C. Also, the inhibition at 1 µM in data set [2] stood at 50 ± 11%.

On to `O=C(COC(=O)Cc1ccc(O)cc1)NCc1cnc2scc(-c3ccc(Br)cc3)n12` [compound 2], for which, in the data set on IDO1, the “ability to permeate the cell and inhibit IDO1 in a cell-based assay” value is “not able to significantly permeate the cell and to inhibit IDO1 in a cell-based assay”. `CN(CC(=O)NCc1cnc2scc(-c3ccc(Br)cc3)n12)C(=O)Cc1ccc([N+](=O)[O-])cc1` [compound 3]: the IC50 in data set [1] (first series, published in 2018, read-out: IC50) was 800 nM. Moreover, the “ability to permeate the cell and inhibit IDO1 in a cell-based assay” value in the data set on IDO1 is “not able to significantly permeate the cell and to inhibit IDO1 in a cell-based assay”.

In general, IC50 refers to the concentration needed to halve the response being measured. Broadly, the melting point is the temperature of the solid-liquid transition. Broadly, the inhibition is the relative decrease from the control value, in per cent.
